Laboratory results taken from the supplement of paper PMC10307832.

Key:
Assay in all cases: relative viability (nuclei count vs DMSO), 5 days (fraction); higher = more cells survive
COR-L23 = system: COR-L23
Summary of the method: (§1)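 Relative viability equals treated-well nuclei counts divided by vehicle-well nuclei counts. Counts came from 4× images of lung cancer cell lines grown in 1536-well plates for 5 days after pin-tool dosing on the day after seeding. Dosing used one drug alone or a fixed anchor-drug dose plus five library-drug doses (not always all listed) in √10 steps, and values are medians of duplicate plates.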

ChaGo-K-1 = system: ChaGo-K-1
Summary of the method: as §1

EMC-BAC-2 = system: EMC-BAC-2
Summary of the method: as §1

EPLC-272H = system: EPLC-272H
Summary of the method: as §1

H3255 = system: H3255
Summary of the method: as §1

HCC-44 = system: HCC-44
Summary of the method: as §1

HCC-827 = system: HCC-827
Summary of the method: as §1

LCLC-103H = system: LCLC-103H
Summary of the method: as §1

LU99A = system: LU99A
Summary of the method: as §1

NCI-H1395 = system: NCI-H1395
Summary of the method: as §1

NCI-H1563 = system: NCI-H1563
Summary of the method: as §1

NCI-H1651 = system: NCI-H1651
Summary of the method: as §1

NCI-H1793 = system: NCI-H1793
Summary of the method: as §1

NCI-H1944 = system: NCI-H1944
Summary of the method: as §1

NCI-H2023 = system: NCI-H2023
Summary of the method: as §1

NCI-H2085 = system: NCI-H2085
Summary of the method: as §1

NCI-H2087 = system: NCI-H2087
Summary of the method: as §1

NCI-H2405 = system: NCI-H2405
Summary of the method: as §1

NCI-H520 = system: NCI-H520
Summary of the method: as §1

NCI-H650 = system: NCI-H650
Summary of the method: as §1

NCI-H838 = system: NCI-H838
Summary of the method: as §1

SK-MES-1 = system: SK-MES-1
Summary of the method: as §1

Nc1ccn([C@@H]2O[C@H](CO)[C@@H](O)[C@@H]2O)c(=O)n1 [Cytarabine] + CCNC(=O)c1noc(-c2cc(C(C)C)c(O)cc2O)c1-c1ccc(CN2CCOCC2)cc1 [Luminespib] (partner 0.01 µM)
relative viability (COR-L23; first compound 0.005 µM): 0.481
relative viability (COR-L23; first compound 0.01581 µM): 0.789
relative viability (COR-L23; first compound 0.05 µM): 0.628
relative viability (COR-L23; first compound 0.1581 µM): 0.257
relative viability (COR-L23; first compound 0.5 µM): 0.163
relative viability (ChaGo-K-1; first compound 0.005 µM): 0.649
relative viability (ChaGo-K-1; first compound 0.01581 µM): 0.43
relative viability (ChaGo-K-1; first compound 0.05 µM): 0.263
relative viability (ChaGo-K-1; first compound 0.1581 µM): 0.206
relative viability (ChaGo-K-1; first compound 0.5 µM): 0.188
relative viability (EMC-BAC-2; first compound 0.005 µM): 0.885
relative viability (EMC-BAC-2; first compound 0.01581 µM): 0.742
relative viability (EMC-BAC-2; first compound 0.05 µM): 0.346
relative viability (EMC-BAC-2; first compound 0.1581 µM): 0.259
relative viability (EMC-BAC-2; first compound 0.5 µM): 0.244
relative viability (EPLC-272H; first compound 0.005 µM): 0.433
relative viability (EPLC-272H; first compound 0.01581 µM): 0.241
relative viability (EPLC-272H; first compound 0.05 µM): 0.194
relative viability (EPLC-272H; first compound 0.1581 µM): 0.228
relative viability (EPLC-272H; first compound 0.5 µM): 0.243
relative viability (H3255; first compound 0.005 µM): 0.98
relative viability (H3255; first compound 0.01581 µM): 0.763
relative viability (H3255; first compound 0.05 µM): 0.69
relative viability (H3255; first compound 0.1581 µM): 0.662
relative viability (H3255; first compound 0.5 µM): 0.554
relative viability (HCC-44; first compound 0.005 µM): 0.949
relative viability (HCC-44; first compound 0.01581 µM): 1.05
relative viability (HCC-44; first compound 0.05 µM): 0.403
relative viability (HCC-44; first compound 0.1581 µM): 0.257
relative viability (HCC-44; first compound 0.5 µM): 0.185
relative viability (HCC-827; first compound 0.005 µM): 0.591
relative viability (HCC-827; first compound 0.01581 µM): 0.396
relative viability (HCC-827; first compound 0.05 µM): 0.336
relative viability (HCC-827; first compound 0.1581 µM): 0.154
relative viability (HCC-827; first compound 0.5 µM): 0.144
relative viability (LCLC-103H; first compound 0.005 µM): 0.96
relative viability (LCLC-103H; first compound 0.01581 µM): 1.05
relative viability (LCLC-103H; first compound 0.05 µM): 1.03
relative viability (LCLC-103H; first compound 0.1581 µM): 0.909
relative viability (LCLC-103H; first compound 0.5 µM): 0.947
relative viability (LU99A; first compound 0.005 µM): 0.209
relative viability (LU99A; first compound 0.01581 µM): 0.199
relative viability (LU99A; first compound 0.05 µM): 0.217
relative viability (LU99A; first compound 0.1581 µM): 0.167
relative viability (LU99A; first compound 0.5 µM): 0.201
relative viability (NCI-H1395; first compound 0.005 µM): 0.544
relative viability (NCI-H1395; first compound 0.01581 µM): 0.61
relative viability (NCI-H1395; first compound 0.05 µM): 0.437
relative viability (NCI-H1395; first compound 0.1581 µM): 0.366
relative viability (NCI-H1395; first compound 0.5 µM): 0.346
relative viability (NCI-H1563; first compound 0.005 µM): 0.628
relative viability (NCI-H1563; first compound 0.01581 µM): 0.506
relative viability (NCI-H1563; first compound 0.05 µM): 0.432
relative viability (NCI-H1563; first compound 0.1581 µM): 0.407
relative viability (NCI-H1563; first compound 0.5 µM): 0.455
relative viability (NCI-H1651; first compound 0.005 µM): 0.751
relative viability (NCI-H1651; first compound 0.01581 µM): 1.02
relative viability (NCI-H1651; first compound 0.05 µM): 0.954
relative viability (NCI-H1651; first compound 0.1581 µM): 0.705
relative viability (NCI-H1651; first compound 0.5 µM): 0.262
relative viability (NCI-H1793; first compound 0.005 µM): 0.201
relative viability (NCI-H1793; first compound 0.01581 µM): 0.186
relative viability (NCI-H1793; first compound 0.05 µM): 0.232
relative viability (NCI-H1793; first compound 0.1581 µM): 0.184
relative viability (NCI-H1793; first compound 0.5 µM): 0.155
relative viability (NCI-H1944; first compound 0.005 µM): 0.619
relative viability (NCI-H1944; first compound 0.01581 µM): 0.343
relative viability (NCI-H1944; first compound 0.05 µM): 0.264
relative viability (NCI-H1944; first compound 0.1581 µM): 0.185
relative viability (NCI-H1944; first compound 0.5 µM): 0.134
relative viability (NCI-H2023; first compound 0.005 µM): 0.604
relative viability (NCI-H2023; first compound 0.01581 µM): 0.235
relative viability (NCI-H2023; first compound 0.05 µM): 0.19
relative viability (NCI-H2023; first compound 0.1581 µM): 0.0889
relative viability (NCI-H2023; first compound 0.5 µM): 0.0897
relative viability (NCI-H2085; first compound 0.005 µM): 0.426
relative viability (NCI-H2085; first compound 0.01581 µM): 0.459
relative viability (NCI-H2085; first compound 0.05 µM): 0.455
relative viability (NCI-H2085; first compound 0.1581 µM): 0.415
relative viability (NCI-H2085; first compound 0.5 µM): 0.339
relative viability (NCI-H2087; first compound 0.005 µM): 0.151
relative viability (NCI-H2087; first compound 0.01581 µM): 0.134
relative viability (NCI-H2087; first compound 0.05 µM): 0.169
relative viability (NCI-H2087; first compound 0.1581 µM): 0.151
relative viability (NCI-H2087; first compound 0.5 µM): 0.134
relative viability (NCI-H2405; first compound 0.005 µM): 0.64
relative viability (NCI-H2405; first compound 0.01581 µM): 0.547
relative viability (NCI-H2405; first compound 0.05 µM): 0.553
relative viability (NCI-H2405; first compound 0.1581 µM): 0.369
relative viability (NCI-H2405; first compound 0.5 µM): 0.318
relative viability (NCI-H520; first compound 0.005 µM): 0.218
relative viability (NCI-H520; first compound 0.01581 µM): 0.216
relative viability (NCI-H520; first compound 0.05 µM): 0.2
relative viability (NCI-H520; first compound 0.1581 µM): 0.233
relative viability (NCI-H520; first compound 0.5 µM): 0.223
relative viability (NCI-H650; first compound 0.005 µM): 0.606
relative viability (NCI-H650; first compound 0.01581 µM): 0.485
relative viability (NCI-H650; first compound 0.05 µM): 0.253
relative viability (NCI-H650; first compound 0.1581 µM): 0.187
relative viability (NCI-H650; first compound 0.5 µM): 0.17
relative viability (NCI-H838; first compound 0.005 µM): 0.234
relative viability (NCI-H838; first compound 0.01581 µM): 0.3
relative viability (NCI-H838; first compound 0.05 µM): 0.303
relative viability (NCI-H838; first compound 0.1581 µM): 0.186
relative viability (NCI-H838; first compound 0.5 µM): 0.167
relative viability (SK-MES-1; first compound 0.005 µM): 0.934
relative viability (SK-MES-1; first compound 0.01581 µM): 0.565
relative viability (SK-MES-1; first compound 0.05 µM): 0.319
relative viability (SK-MES-1; first compound 0.1581 µM): 0.226
relative viability (SK-MES-1; first compound 0.5 µM): 0.232
